Test results published in patent publication US20050129621A1, “Aerosol formulations for pulmonary administration of medicaments to produce a systemic effect” (Chiesi Farmaceutici S.P.A., priority 2002, published 2005).
Like-named read-outs stand apart in the source and are kept apart here.

Columns and labels:
[1] = Solubility studies in HFA pMDI formulations (visual assessment for crystal growth)
Method: The assembly of the pMDI cans was carried out using hand operated crimping and filling equipment. Formulations were prepared by accurately weighing the required quantity of drug into the can or vial. The appropriate volume of ethanol and the other co-solvent if required in the formulation, was then added. The valve was crimped onto the vial/can and the assembled vial/can was ultra-sonicated for approximately 10 minutes. The HFA propellant was filled through the valve and the pMDI was ultra-sonicated for a further 10 minutes. […] Final compositions were calculated as percentage w/v for the active ingredient and as percentage w/w for the co-solvents.
All solubility investigations were conducted in plastic coated glass pMDI vials fitted with continuous spray valves. Once produced the medicament-HFA solution pMDIs were stored in refrigerator at 4° C. (±0.1° C.). The pMDI vials were removed periodically and the vials assessed visually with the aid of a polarized light unit for crystal growth.

[2] = Cascade impaction studies (Andersen Cascade Impactor), aerosol delivery characteristics; assay type: physicochemical
Method: All impaction studies were conducted with formulations contained in cut edge anodised aluminium cans fitted with 50 μl or 100 μl valves. The studies were carried out using an Andersen Cascade Impactor (ACI) fitted with a USP XXII metal throat entry port.
The HFA solution formulations were discharged into the ACI through actuators having an orifice diameter from 0.14 to 0.45 mm. Deposition of the drug on each ACI plate was determined by high pressure liquid chromatography (HPLC).
MMAD values and corresponding geometric standard deviation (GSD) were calculated from plots of the cumulative percentage undersize of drug collected on each ACI plate (probit scale), against the upper cut off diameter for each respective ACI plate (log10 scale).
The following parameters were determined: the metered dose, which is the sum of the dose delivered through the Andersen apparatus plus the active ingredient residue deposited on the device actuator; the cumulative amount of active particles deposited on the various ACI stages; the amount on the actuator; the amount in the adaptor and in the throat (adp/throat); the fme particle dose or respirable dose (FPD) which is the amount of particles deposited on stages 3 to filter of the ACI and corresponds to the amount of particles of size less than 4.7 μm; the fine particle fraction or respirable fraction which is the ratio between the respirable dose and the dose delivered ex-actuator.
The cans were provided with actuators with an orifice diameter of 0.22 mm.
Two ACI deposition determinations were performed with each formulation. Twenty shots were discharged into the ACI.
The cans were provided with actuators with an orifice diameter of 0.14 mm.
Two ACI deposition determinations were performed with the formulation. Ten shots were discharged into the ACI.

[3] = Stability study of pMDI formulations in coated aluminum cans, HPLC; details: 25° C., six months
Method: The recovery of diisobutyryl apomorphine was determined by HPLC.
The leuprolide acetate content was determined by HPLC.

[4] = 0.5% and 1% w/v in HFA 134a, 5% w/w ethanol, 0.1% w/w glycerol, actuator orifice 0.22 mm
[5] = 0.04% w/v (40 μg/100 μl) in HFA 134a, 15% w/w ethanol, 2% w/w water, actuator orifice 0.14 mm
[6] = 0.08% w/v (80 μg/100 μl) in HFA 134a, 18% w/w ethanol, 3% w/w water, actuator orifice 0.14 mm

SMILES: CC(C)C(=O)Oc1ccc2c(c1OC(=O)C(C)C)-c1cccc3c1[C@@H](C2)N(C)CC3 [diisobutyryl apomorphine]
- concentration at which formulations are soluble ([1]; in HFA 134a or HFA 227, various percentages of ethanol, stored at 4° C.): up to 1 % w/v
- MMAD [2, 4]: about 2.0 μm
- amount of active particles of sizes from 0.43 to 3.3 μm [2, 4]: ≥ 60%
- fine particle fraction (FPF) [2, 4]: 70-75%
- degradation ([3]; formulation of Example 1, coated aluminum cans upright and inverted): minimal degradation
- difference between cans stored upright and inverted ([3]; formulation of Example 1, coated aluminum cans): no significant difference

SMILES: CCNC(=O)[C@@H]1CCCN1C(=O)[C@H](CCCNC(=N)N)NC(=O)[C@H](CC(C)C)NC(=O)[C@@H](CC(C)C)NC(=O)[C@H](Cc1ccc(O)cc1)NC(=O)[C@H](CO)NC(=O)[C@H](Cc1c[nH]c2ccccc12)NC(=O)[C@H](Cc1c[nH]cn1)NC(=O)[C@@H]1CCC(=O)N1 [leuprolide acetate]
- change of solubility when water was added [1]: significant increase
- concentration at which formulations are soluble [1]: up to 0.26 % w/v
- MMAD [2, 5]: about 1.0 μm
- amount of active particles of sizes from 0.43 to 3.3 μm [2, 5]: ≥ 61%
- fine particle fraction (FPF) [2, 5]: at least 72%
- MMAD [2, 6]: about 1.3 μm
- amount of active particles of sizes from 0.43 to 3.3 μm [2, 6]: ≥ 52%
- fine particle fraction (FPF) [2, 6]: at least 59%
